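GI50: concentration for 50% inhibition of growth. TGI is the concentration that stops growth completely.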
Assays:
Assay in all cases: NCI tumour cell line growth inhibition, 384-well format
[1] = tested on: MOLT-4 leukemia
[2] = tested on: HOP-92 NSCLC
[3] = tested on: HCT-116 colon
[4] = tested on: M14 melanoma
[5] = tested on: T-47D breast
[6] = tested on: NCI-H23 lung
[7] = tested on: SF-295 CNS
[8] = tested on: MDA-MB-468 breast
[9] = tested on: ACHN renal
[10] = tested on: SF-539 CNS
[11] = tested on: SNB-75 CNS
[12] = tested on: PC-3 prostate
[13] = tested on: SN12C renal
[14] = tested on: MDA-MB-435 melanoma
[15] = tested on: SW-620 colon
[16] = tested on: BT-549 breast
[17] = tested on: OVCAR-8 ovarian
[18] = tested on: NCI-H322M lung
[19] = tested on: RXF 393 renal
[20] = tested on: UACC-257 melanoma
[21] = tested on: TK-10 renal
[22] = tested on: UO-31 renal
[23] = tested on: OVCAR-3 ovarian
[24] = tested on: OVCAR-5 ovarian
[25] = tested on: UACC-62 melanoma
[26] = tested on: IGROV1 ovarian

`CNC(=O)c1cn(C[C@H](F)CCc2ccc(NC(=O)Cc3cc(OC4CC(F)(F)C4)cc(C)n3)nn2)nn1` gave a GI50 [1] of 66.8 µM, a TGI [1] of over 100 µM and a GI50 [2] of over 100 µM. The TGI [2] was over 100 µM, the GI50 [3] was over 100 µM and the TGI [3] was over 100 µM. For the same compound, the GI50 [4] was over 100 µM, the TGI [4] was over 100 µM and the GI50 [5] was over 100 µM. It also gave a TGI [5] of over 100 µM, a GI50 [6] of over 100 µM and a TGI [6] of over 100 µM. For the same compound, the GI50 [7] was 1.51 µM, the TGI [7] was over 100 µM and the GI50 [8] was over 100 µM. The TGI [8] was over 100 µM, the GI50 [9] was over 100 µM and the TGI [9] was over 100 µM. The GI50 [10] was over 100 µM, the TGI [10] was over 100 µM and the GI50 [11] was over 100 µM. The TGI [11] was over 100 µM, the GI50 [12] was over 100 µM and the TGI [12] was over 100 µM. It also gave a GI50 [13] of 0.0398 µM, a TGI [13] of 0.32 µM and a GI50 [14] of over 100 µM. For the same compound, the TGI [14] was over 100 µM, the GI50 [15] was over 100 µM and the TGI [15] was over 100 µM. It also gave a GI50 [16] of over 100 µM, a TGI [16] of over 100 µM and a GI50 [17] of over 100 µM. For the same compound, the TGI [17] was over 100 µM, the GI50 [18] was 0.0772 µM and the TGI [18] was 0.321 µM. For the same compound, the GI50 [19] was 0.0276 µM, the TGI [19] was 0.11 µM and the GI50 [20] was over 100 µM. For the same compound, the TGI [20] was over 100 µM, the GI50 [21] was 0.31 µM and the TGI [21] was over 100 µM. For the same compound, the GI50 [22] was over 100 µM, the TGI [22] was over 100 µM and the GI50 [23] was over 100 µM. It also gave a TGI [23] of over 100 µM, a GI50 [24] of over 100 µM and a TGI [24] of over 100 µM. It also gave a GI50 [25] of over 100 µM, a TGI [25] of over 100 µM and a GI50 [26] of over 100 µM.
